According to ChEMBL document CHEMBL1201862, “PubChem BioAssay data set” (2004):
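Dose response: 5 concentrations. Exposure: 48 h. Format: 96-well plates. Endpoint: linear interpolation; highest concentration if not reached. GI50 = concentration required for 50% inhibition of growth.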 Active and inactive are the calls of the source. Rule as the data show it: active = GI50 up to about 1.1 µM and inactive = higher.

Experiments:
Test in all cases: NCI-60 cell line screen, 48 h
NCI/ADR-RES = system: NCI/ADR-RES
A549 = system: A549
DU-145 = system: DU-145
HCT-116 = system: HCT-116
SF-539 = system: SF-539
TK-10 = system: TK-10
UACC-62 = system: UACC-62
KM12 = system: KM12
OVCAR-8 = system: OVCAR-8
OVCAR-4 = system: OVCAR-4
HCC 2998 = system: HCC 2998
RPMI-8226 = system: RPMI-8226
Hs-578T = system: Hs-578T
HOP-92 = system: HOP-92
NCI-H460 = system: NCI-H460
SN12C = system: SN12C
K562 = system: K562
HCT-15 = system: HCT-15
PC-3 = system: PC-3
CAKI-1 = system: CAKI-1

SMILES | GI50 (NCI/ADR-RES) | GI50 (A549) | GI50 (DU-145) | GI50 (HCT-116) | GI50 (SF-539) | GI50 (TK-10) | GI50 (UACC-62) | GI50 (KM12) | GI50 (OVCAR-8) | GI50 (OVCAR-4) | GI50 (HCC 2998) | GI50 (RPMI-8226) | GI50 (Hs-578T) | GI50 (HOP-92) | GI50 (NCI-H460) | GI50 (SN12C) | GI50 (K562) | GI50 (HCT-15) | GI50 (PC-3) | GI50 (CAKI-1)
O=C1C=CC2(O[C@H](C3CCCCC3)[C@@H](C3CCCCC3)O2)C(SC(=O)c2ccccc2)C1 (stereo partly specified) | 1.43 µM (inactive) | 6.07 µM (inactive) | 2.44 µM (inactive) | 0.918 µM (active) | 2.88 µM (inactive) | 2.26 µM (inactive) | 2.48 µM (inactive) | 6.98 µM (inactive) | 1.73 µM (inactive) | 1.25 µM (inactive) | 1.25 µM (inactive) | 0.968 µM (active) | 1.92 µM (inactive) | 8.39 µM (inactive) | 7.8 µM (inactive) | 1.82 µM (inactive) | 1.4 µM (inactive) | 3.21 µM | 2.23 µM (inactive) | –
c1ccc(C(=NNc2nc3ccccc3o2)c2ccccn2)nc1 | 0.0245 µM (active) | 0.151 µM (active) | 0.188 µM (active) | < 0.0117 µM (active) | 0.0931 µM (active) | 0.0574 µM (active) | 0.0993 µM (active) | 0.148 µM (active) | 0.0301 µM (active) | 0.0261 µM (active) | 0.0391 µM (active) | 0.0327 µM (active) | 0.447 µM (active) | < 0.01 µM (active) | – | 0.118 µM (active) | 0.0327 µM (active) | 0.0299 µM | < 0.0191 µM (active) | 0.0723 µM (active)
CCC(=O)Nc1ccc(/N=N/N(C)C)cc1 | > 100 µM (inactive) | > 100 µM (inactive) | > 100 µM (inactive) | > 100 µM (inactive) | > 100 µM (inactive) | – | > 100 µM (inactive) | – | > 100 µM (inactive) | > 100 µM (inactive) | 1.66 µM (inactive) | – | > 100 µM (inactive) | 12.4 µM (inactive) | > 100 µM (inactive) | > 100 µM (inactive) | 50.2 µM (inactive) | > 100 µM | > 100 µM (inactive) | –
Cc1c(S(=O)(=O)O)ccc(/N=N/c2c(O)c(C(=O)O)cc3ccccc23)c1Cl | > 100 µM (inactive) | > 100 µM (inactive) | > 100 µM (inactive) | > 100 µM (inactive) | – | > 100 µM (inactive) | > 100 µM (inactive) | > 100 µM (inactive) | > 100 µM (inactive) | > 100 µM (inactive) | > 100 µM (inactive) | > 100 µM (inactive) | > 62.1 µM (inactive) | > 100 µM (inactive) | > 100 µM (inactive) | > 100 µM (inactive) | > 100 µM (inactive) | > 100 µM | > 100 µM (inactive) | > 86.5 µM (inactive)
O=C1/C(=C/c2ccccc2)Oc2cc(O)ccc21 | > 100 µM (inactive) | > 100 µM (inactive) | > 100 µM (inactive) | > 100 µM (inactive) | > 100 µM (inactive) | > 100 µM (inactive) | > 100 µM (inactive) | > 100 µM (inactive) | > 100 µM (inactive) | > 100 µM (inactive) | > 100 µM (inactive) | > 100 µM (inactive) | > 100 µM (inactive) | – | > 100 µM (inactive) | > 100 µM (inactive) | > 100 µM (inactive) | > 100 µM | > 100 µM (inactive) | > 100 µM (inactive)
OCC12C3C4C5C3C1C5C42 (stereo unspecified) | > 100 µM (inactive) | > 100 µM (inactive) | > 100 µM (inactive) | > 100 µM (inactive) | > 100 µM (inactive) | > 100 µM (inactive) | > 100 µM (inactive) | – | > 100 µM (inactive) | > 100 µM (inactive) | – | – | > 100 µM (inactive) | > 100 µM (inactive) | > 100 µM (inactive) | > 100 µM (inactive) | > 100 µM (inactive) | > 100 µM | > 100 µM (inactive) | > 100 µM (inactive)
CC(=O)C1=C(C)O[C@@H]2O[C@H](COCc3ccccc3)[C@@H](OCc3ccccc3)[C@H](O)[C@@H]2S1 | 16.3 µM (inactive) | 27.8 µM (inactive) | 20.8 µM (inactive) | 16.4 µM (inactive) | 20 µM (inactive) | 19.1 µM (inactive) | 15.5 µM (inactive) | 19.6 µM (inactive) | 23 µM (inactive) | 24.7 µM (inactive) | – | 17.2 µM (inactive) | 17.9 µM (inactive) | 22.9 µM (inactive) | 17.5 µM (inactive) | 19.2 µM (inactive) | 19.7 µM (inactive) | 21.3 µM | 26.2 µM (inactive) | 49.3 µM (inactive)
CNC(=O)/C(C#N)=C(\N)N1CCCC1 | > 100 µM (inactive) | > 100 µM (inactive) | > 100 µM (inactive) | > 100 µM (inactive) | > 100 µM (inactive) | > 100 µM (inactive) | > 100 µM (inactive) | > 100 µM (inactive) | > 100 µM (inactive) | – | > 100 µM (inactive) | > 100 µM (inactive) | > 100 µM (inactive) | – | > 100 µM (inactive) | > 100 µM (inactive) | > 100 µM (inactive) | > 100 µM | > 100 µM (inactive) | > 100 µM (inactive)
